Experimental data reported in patent US10955415B2, “CD247 as a biomarker for assessing the effect of chemotherapeutic and biological drugs” (YISSUM RESEARCH DEVELOPMENT COMPANY OF THE HEBREW …, priority 2011, dated 2021).

Test system: MDSCs
Test: NO and ROS production gated on MDSCs, CRC mouse model
Format: in vivo
Conditions: CRC-bearing mice, splenocytes
Description: Splenocytes isolated from normal mice, CRC mice or CRC mice treated with 5-FU alone or in a combination with CPT11 (n=5) were analyzed for nitric oxide (NO, FIG. 23A) and reactive oxygen species (ROS, FIG. 23B) production, both by flow cytometry analysis gaiting on the MDSCs (Gr1+CD11b+) population. Histograms represent production levels, as shown by mean fluorescence intensity (MFI). Data from three independent experiments (n=3) are presented. Statistical analyses using t test indicate significant differences at 95%. Means and SEM are shown. *, P<0.05; **, P<0.01. Abbreviations: Norm. (normal), g. (gated).

Question: With `O=c1[nH]cc(F)c(=O)[nH]1` [5-FU, 5-Fluorouracil] as the molecule, how does the “NO and ROS production (MDSC suppressive activity)” value read?
Answer: decreased the suppressive activity
